According to US20240002429A1, “PRODRUG OF 5a-HYDROXY-6ß-[2-(1H-IMIDAZOL-4-YL)ETHYLAMINO]CHOLESTAN-3ß-OL AND PHARMACEUTICAL COMPOSITIONS COMPRISING SAME FOR USE IN THE TREATMENT OF CANCER” (priority 2020, published 2024):
Where two headings read alike, the source gives them in different places.

How the values were obtained:
4T1 cells = experiment: Cytotoxicity on 4T1 cells, MTT; type: cell-based, murine; conditions: Mus musculus, 4T1, MTT, 48 h
Procedure: The cellular viability tests were carried out on murine mammary tumor 4T1 cells characterized as negative triples (HER2−, ER−, PR−).
For this experiment, a cell culture medium was prepared. The culture medium consists of Dulbecco's Modified Eagle Medium (DMEM, marketed by Westburg under the reference LO BE12-604F), comprising 4.5 g/L glucose with L-glutamine, to which 10% of fetal calf serum (FCS) and 50 U/mL of penicillin/streptomycin are added. The 4T1 cells are introduced into this culture medium.
96-well plates were seeded with 2000 4T1 cells per well. After 72 hours (h) of culture in normal conditions, i.e. in an incubator at a temperature of 37° C. at 5% CO2, the 4T1 cells are treated for 48 h with DX101, DX107, DX113, DX117, DX119, DX121 or DX131 at 100 nM, 1 μM, 2.5 μM and 10 μM. A control condition (CTL) is also carried out in parallel using the protocol described above but without treatment with the molecules DX101, DX107, DX113, DX117, DX119, DX121, DX131 or DX133.
Cellular viability is measured by three different methods. For the first method, MTT labeling is carried out at 48 hours. This test is based on the use of the tetrazolium salt MTT (3-(4,5-dimethylthiazol-2-yl)-2,5-diphenyltetrazolium bromide). The tetrazolium is reduced by mitochondrial succinate dehydrogenase of active living cells, to formazan, a precipitate of a violet color. The quantity of precipitate formed is proportional to the quantity of living cells but also to the metabolic activity of each cell. […] After 48 hours, the medium is aspirated, and the cells are incubated with MTT (0.5 mg/ml in culture medium) for about 3 hours. The MTT solution is aspirated and the violet crystals are dissolved in dimethylsulfoxide (DMSO). The OD (optical density) is measured at 550 nm. The percentage viability is then determined in each well relative to the CTL and the IC50 (concentration for which there are still 50% of living cells) is determined for each molecule with Prism software using the nonlinear regression straight line (log(inhibitor) vs. Response).

[1] = tested on: MCF-7 mammary tumor cells; experiment: Morphology of MCF-7 cells under inverted microscope; type: cell-based
Procedure: A cell viability test was carried out on MCF-7 mammary tumor cells (Michigan Cancer Foundation-7) […] (ER(+) cells) containing receptors for the hormone estrogen.
The MCF-7 cells are in a cell culture medium identical to example 14 and are seeded in 12-well plates at 50000 cells per well for 24 h. 24 hours after seeding, the cells are treated with the solvate vehicle comprising water and ethanol with an ethanol ratio 1‰ and comprising 5α-hydroxy-6β-[2-(1H-imidazol-4-yl)-ethylamino]-cholestan-3β-yl propionate or 5α-hydroxy-6β-[2-(1H-imidazol-4-yl)-ethylamino]-cholestan-3β-ol at 1, 2.5 or 5 μM. The cells are observed in an inverted microscope and photographed with the microscope camera at 24 h and 48 h. The morphological changes of the cells at 1 μM are very slight.
In this test: • The white vesicles reflect cell death by cytotoxic autophagy; • The cells that become rounded reflect cell death; • The cells that become detached reflect a cytotoxic effect; • The adherent cells reflect cell survival; • The supernatant cells reflect cell death; and • The refractive cells reflect cell death.

Compound	IC50 (4T1 cells; log of IC50 in μM, read-out: Mean LogIC50 (±SEM) (converted)) [µM]	IC50 (4T1 cells; read-out: IC50) [µM]	Morphological observations at 24 hours ([1]; MCF-7, 1 μM, 24 h)	Observations at 48 hours ([1]; MCF-7, 5 μM, 48 h)
CCC(=O)O[C@H]1CC[C@]2(C)[C@H]3CC[C@]4(C)[C@@H]([C@H](C)CCCC(C)C)CC[C@H]4[C@@H]3C[C@@H](NCCc3c[nH]cn3)[C@@]2(O)C1 [DX107, 5α-hydroxy-6β-[2-(1H-imidazol-4-yl)ethylamino]cholestan-3β-yl propionate]	3.8	3.79	–	–
CC(C)CCC[C@@H](C)[C@H]1CC[C@H]2[C@@H]3C[C@@H](NCCc4c[nH]cn4)[C@@]4(O)C[C@@H](O)CC[C@]4(C)[C@H]3CC[C@]12C [DX101, 5α-hydroxy-6β-[2-(1H-imidazol-4-yl)-ethylamino]-cholestan-3β-ol, reference compound]	–	–	Some white vesicles	All the cells are supernatant.
